Measured values from US5665745A, “Heterocyclic compounds and their preparation and use” (Eli Lilly and Company, priority 1995, dated 1997).
pIC50: −log10 of the molar value. Read-outs that look alike come from different tables or passages of the source.

Experiments:
[1] = target: T1, muscarinic receptors (M1 -site, pirenzepine sensitive site) (Rattus norvegicus, UniProt P08482); assay: inhibition of ^3 HPRZ (pirenzepine, [N-methyl-^3 H]) binding to rat cerebral cortex membranes; design: species or system rat (male Wistar
T1 construct: from tissue; host or cells: cerebral cortex membranes of male Wistar rats
T1 sequence (P08482 1-460): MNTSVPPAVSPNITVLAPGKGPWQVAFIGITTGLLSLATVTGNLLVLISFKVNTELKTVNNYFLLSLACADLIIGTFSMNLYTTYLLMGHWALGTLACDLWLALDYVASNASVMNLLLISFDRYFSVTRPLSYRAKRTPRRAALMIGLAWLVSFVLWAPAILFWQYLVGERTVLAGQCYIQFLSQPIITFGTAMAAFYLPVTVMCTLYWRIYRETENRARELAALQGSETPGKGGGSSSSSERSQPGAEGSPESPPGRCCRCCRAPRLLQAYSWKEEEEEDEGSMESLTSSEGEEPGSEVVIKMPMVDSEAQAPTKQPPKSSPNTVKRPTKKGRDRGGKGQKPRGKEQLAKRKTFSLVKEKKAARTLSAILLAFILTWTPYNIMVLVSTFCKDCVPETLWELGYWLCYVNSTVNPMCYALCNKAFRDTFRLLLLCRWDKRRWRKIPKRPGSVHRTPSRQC
Method: Furthermore the pharmacological properties of the compounds of the invention can also be illustrated by determining their capability to inhibit ^3 HPRZ (pirenzepine, [N-methyl-^3 H]) binding to rat cerebral cortex membranes.
Pirenzepine binds selectively to subtype of muscarinic receptors. Historically the type is named the M1 -site, whereas pirenzepine sensitive site would be more appropriate.
(§1) All preparations are performed at 0°-4° C. unless otherwise indicated. Fresh cortex (0.1-19) from male Wistar rats (150-200 g) is homogenized for 5-10 s in 10 mL 20 mM Hepes pH: 7.4, with an Ultra-Turrax homogenizer. The homogenizer is rinsed with 2×10 mL of buffer and the combined suspension centrifuged for 15 min. at 40,000×g. The pellet is washed three times with buffer. In each step the pellet is homogenized as before in 3×10 mL of buffer and centrifuged for 10 min. at 40,000×g.
The final pellet is homogenized in 20 mM Hepes pH: 7.4 (100 mL per g of original tissue) and used for binding assay. Aliquots of 0.5 mL is added 20 μl of test solution and 25 μL of ^3 HPRZ (1.0 nM, final conc.), mixed and incubated for 60 min. at 20° C. Non-specific binding is determined in triplicate using atropine (1 ,μg/mL, final conc.) as the test substance. After incubation samples are added 5 mL of ice-cold buffer and poured directly onto Whatman GF/C glass fiber filters under suction and immediately washed 2 times with 5 mL of ice-cold buffer. The amount of radioactivity on the filters are determined by conventional liquid scintillation counting. Specific binding is total binding minus non-specific binding.
Test substances are dissolved in 10 mL water, at a concentration of 0.22 mg/mL.
(§2) The test value will be given as IC50 (the concentration (nM) of the test substance which inhibits the specific binding of ^3 HPRZ by 50%). IC50 =(applied test substance concentration) x(Cx /Co -Cx)nM where Co is specific binding in control assays and Cx is the specific binding in the test assay. (The calculations assume normal mass-action kinetics).

[2] = target: muscarinic acetylcholine receptors; assay: inhibition of specific binding of ^3 H-Oxotremorine-M (^3 H-Oxo); design: species or system rat (male Wistar; settings: ^3 H-Oxotremorine 1.0 nM, rat cortex, 30 min. at 25° C.
Excerpt: The pharmacological properties of the compounds of the invention can be illustrated by determining their capability to inhibit the specific binding of ^3 H-Oxotremorine-M (^3 H-Oxo). Birdsdall N. J. M., Hulme E. C., and Burgen A. S. V. (1980). "The Character of Muscarinic Receptors in Different Regions of the Rat Brain" Proc. Roy. Soc. London (Series B) 207,1.
^3 H-Oxo labels muscarinic receptor in the CNS (with a preference for agonist domains of the receptors). Three different sites are labeled by ^3 H-Oxo. […] Using the present experimental conditions only the high and medium affinity sites are determined.
The inhibitory effects of compounds on ^3 H-oxo binding reflects the affinity for muscarinic acetylcholine receptors.
as §1, with “cortex (0.1-1 g)” for “cortex (0.1-19)”, “rats (150-250” for “rats (150-200”, “5-10 seconds” for “5-10 s”, “[…]” for “20 mM”, “with 10” for “with 2×10”, “in 2×10” for “in 3×10”
The final pellet is homogenized in 20 mM Hepes pH: 7.4 (100 mL per g of original tissue) and used for binding assay. Aliquots of 0.5 mL is added 25 μL of test solution and 25 μL of ^3 H-Oxotremorine (1.0 nM, final concentration) mixed and incubated for 30 min. at 25° C. Non-specific binding is determined in triplicate using arecoline ([…], final concentration) as the test substance. After incubation samples are added 5 mL of ice-cold buffer and poured directly onto Whatman GF/C glass fiber filters under suction and immediately washed 2 times with 5 mL of ice-cold buffer. The amount of radioactivity on the filters are determined by conventional liquid scintillation counting. Specific binding is total binding minus non specific binding.
as §2, with “Test substances are dissolved in 10 mL water (if necessary heated on a steam-bath for less than 5 min.) at a concentration of 2.2 mg/mL. […] The test” for “The test”, “of ^3 H-oxo by 50%).” for “of ^3 HPRZ by 50%).”

[3] = ^3 HPRZ 1.0 nM, rat cortex, 60 min. at 20° C., read-out: ^3 HPRZ IC50 (head from b208 on: Pir IC-50)

| pIC50 [1, 3] | SMILES | pIC50 [2] | pIC50 [1] |
| --- | --- | --- | --- |
| 7.96 | CC(C)=CCCOc1nsnc1O[C@@H]1CN2CCC[C@H]1C2 (relative stereo) [Compound 180, (±)-endo-3-(4-Methyl-3-pentenyloxy)-4-(1-azabicyclo[3.2.1]octyl-6-oxy)-1,2,5-thiadiazole] | 8.33 |  |
| 8.37 | C#CC(C)Oc1nsnc1OC1CN2CCCC1C2 (mixture of isomers) [Compound 203, (±)-endo-3-(3-Butyn-2-oxy)-4-(1-azabicyclo[3.2.1]octyl-6-oxy)-1,2,5-thiadiazole] | 8.51 |  |
|  | CC(C)CCCOc1nsnc1OC1CN2CCC1CC2 (racemic) [Compound 11, (±)-3-(4-Methylpentyloxy)-4-(1-azabicyclo[2.2.2]octyl-3-oxy)-1,2,5-thiadiazole] | 7.54 | 7.48 |
|  | FC(F)(F)c1ccc(SCCSc2nsnc2OC2CN3CCC2CC3)s1 (racemic) [Compound 55, (±)-3-(2-(2-Thio-5-trifluoromethylthienyl)ethylthio)-4-(1-azabicyclo[2.2.2]octyl-3-oxy)-1,2,5-thiadiazole] | 7.96 | 7.64 |
| 8.05 | CCCCSc1nsnc1OCCN(C)C [Compound 144, 3-Butylthio-4-(2-dimethylaminoethoxy)-1,2,5-thiadiazole] | 7.92 |  |
|  | CCCSc1nsnc1OC1CN2CCC1CC2 (racemic) [Compound 13, (±)-3-Propylthio-4-(1-azabicyclo[2.2.2]octyl-3-oxy)-1,2,5-thiadiazole] | 8.85 | 8.43 |
| 8.52 | FCCCOc1nsnc1O[C@@H]1CN2CCC[C@H]1C2 (relative stereo) [Compound 205, (±)-endo-3-(3-Fluoropropoxy)-4-(1-azabicyclo[3.2.1]octyl-6-oxy)-1,2,5-thiadiazole] | 8.60 |  |
| 8.57 | CC#CCCOc1nsnc1O[C@@H]1CN2CCC[C@H]1C2 (relative stereo) [Compound 175, (±)-endo-3-(3-Pentynyloxy)-4-(1-azabicyclo[3.2.1]octyl-6-oxy)-1,2,5-thiadiazole] | 9.13 |  |
|  | CCCCOc1nsnc1O[C@H]1CN2CC[C@H]1C2 (relative stereo) [Compound 26, (±)-Exo-3-butyloxy-4-(1-azabicyclo[2.2.1]heptyl-3-oxy)-1,2,5-thiadiazole] | 7.96 | 7.43 |
| 8.72 | C/C=C/COc1nsnc1O[C@@H]1CN2CCC[C@H]1C2 (relative stereo) [Compound 169, (±)-endo-3-(trans-2-Butenyloxy)-4-(1-azabicyclo[3.2.1]octyl-6-oxy)-1,2,5-thiadiazole] | 9.00 |  |
| 8.42 | c1csc(CCOc2nsnc2O[C@@H]2CN3CCC[C@H]2C3)c1 (relative stereo) [Compound 189, (±)-endo-3-[2-(2-Thienyl)ethoxy]-4-(1-azabicyclo[3.2.1]octyl-6-oxy)-1,2,5-thiadiozole] | 8.77 |  |
| 8.52 | CSCCOc1nsnc1O[C@@H]1CN2CCC[C@H]1C2 (relative stereo) [Compound 170, (±)-endo-3-(2-Methylthioethoxy)-4-(1-azabicyclo[3.2.1]octyl-6-oxy)-1,2,5-thiadiazole] | 8.82 |  |
| 7.72 | CCCCCSc1nsnc1O[C@@H]1CN2CCC[C@H]1C2 (relative stereo) [Compound 24, (±)-Endo-3-pentylthio-4-(1-azabicyclo[3.2.1]-octyl-6-oxy)-1,2,5-thiadiazole] | 7.72 |  |
|  | CCCCCCOc1nsnc1OC1CN2CCC1CC2 (racemic) [Compound 10, (±)-3-Hexyloxy-4-(1-azabicyclo[2.2,2]octyl-3-oxy)-1,2,5-thiadiazole] | 8.21 | 7.66 |
| 8.51 | CC(C)=CCOc1nsnc1O[C@@H]1CN2CCC[C@H]1C2 (relative stereo) [Compound 201, (±)-endo-3-(3-Methyl-2-butenyloxy)-4-(1-azabicyclo[3.2.1]octyl-6-oxy)-1,2,5-thiadiazole] | 8.43 |  |
|  | N#Cc1ccc(CSc2nsnc2OC2CN3CCC2CC3)cc1 (racemic) [Compound 41, (±)-3-(4-Cyanobenzylthio)-4-(1-azabicyclo[2.2.2]octyl-3-oxy)-1,2,5-thiadiazole] | 7.60 | 7.72 |
| 8.28 | CCCCCCOc1nsnc1OC1CC2CCC1NC2 (mixture of isomers) [Compound 161, (±)-exo-3-(Hexyloxy)-4-(2-azabicyclo[2.2.2]octyl-6-oxy)-1,2,5-thiadiazole] | 8.17 |  |
| < 6.00 | CCCCSc1nsnc1O[C@@H]1CNC[C@H]1O (relative stereo) [Compound 146, (±)-trans-3-Butylthio-4-(4-hydroxy-pyrollidin-3-oxy)-1,2,5-thiadiazole] | 6.11 |  |
|  | C(#Cc1ccccc1)COc1nsnc1OC1CN2CCC1CC2 (racemic) [Compound 107, (±)-3-(3-phenylpropynyloxy)-4-(1-azabicyclo[2.2.2]octyl-3-oxy)-1,2,5-thiadiazole] | 8.02 | 7.65 |
|  | C1CC1COc1nsnc1OC1CN2CCC1CC2 (racemic) [Compound 106, (±)-3-(Cyclopropylmethoxy)-4-(1-azabicyclo[2.2.2]octyl-3-oxy)-1,2,5-thiadiazole] | 8.02 | 7.02 |

| SMILES | pIC50 [1, 3] | pIC50 [2] | pIC50 [1] |
| --- | --- | --- | --- |
| FC(F)(F)CCCOc1nsnc1O[C@@H]1CN2CCC[C@H]1C2 (relative stereo) [Compound 167, (±)-endo-3-(4,4,4-Trifluorobutoxy)-4-(1-azabicyclo[3.2.1]octyl-6-oxy)-1,2,5-thiadiazole] | 8.70 | 8.55 |  |
| c1nsnc1OC1CN2CCC1CC2 (racemic) [Compound 100, (±)-3-(1-azabicyclo[2.2.2]octyl-3-oxy)-1,2,5-thiadiazole] | 6.07 | 6.06 |  |
| FCCCCOc1nsnc1O[C@@H]1CN2CCC[C@H]1C2 (relative stereo) [Compound 197, (±)-endo-3-(4-Fluorobutoxy)-4-(1-azabicyclo[3.2.1]octyl-6-oxy)-1,2,5-thiadiazole] | 8.16 | 8.64 |  |
| COc1nsnc1OC1CN2CCC1CC2 (racemic) [Compound 5, (±)-3-Methoxy-4-(1-azabicyclo[2.2.2]octyl-3-oxy)-1,2,5-thiadiazole] | 6.74 | 6.79 |  |
